# From patent US20140163082A1, “PYRAZOLYL COMPOUNDS FOR USE IN REVERSING REACTIVE GLIOSIS” (priority 2011, published 2014)
# Tests used:
# [1] = test system: retinal NV in OIR mouse model; type: in vivo
# Experimental: Retinal NV was induced in newborn mice as described previously. Briefly, P7 mice were exposed with their nursing mother, for 5 days [between P7 and P12] to hyperoxic conditions, by incubating them in an airtight chamber [PROOX 110 chamber O2 controller; Biospherix Ltd., Redfield, N.Y.] ventilated by a mixture of O2 and air to a final oxygen fraction of 75±2%. These incubation conditions induced vaso-obliteration and subsequent cessation of vascular development in the capillary beds of the central retina. At P12, the mice were allowed to recover in normal room air conditions and maintained for another 5 days [till P17], the day in which peak disease occurs. A condition of relative hypoxia resulted between P12 and P17, and extensive retinal NV developed in 100% of the mice. Age-matched animals with the hyperoxia-exposed groups were maintained identically, except they were exposed to room air […], 79% N2] for the entire duration of the experiment. All animals were examined and sacrificed on the same days.
# A group of hyperoxia-exposed animals [n=15] were injected intravitreally [into both eyes] at P12 and P15 with 3 μl of YC-1 [100 μM] [drug-treated group]. Another group of hyperoxiaexposed mice [n=15] were injected intravitreally [into both eyes] at P12 and P15 with 3 μl of DMSO [0.2% [v/v]] [mock-treated group]. Non-treated mice grown under ambient conditions, non-treated hyperoxia-exposed mice, DMSO-treated hyperoxia-exposed mice and YC-1-treated hyperoxia-exposed mice, were all examined at different critical time points for qualitative assessment of the retinal vasculature by fluorescein angiography.
# Deep anesthesia was induced by intraperitoneal injection of ketamine [1%], xylazine [0.1%], and sodium chloride [0.9%] in a concentration of 0.1 mL/10 g mouse body weight. Sternotomy was performed, the mice were perfused through the left ventricle with 600 μL of high-molecular-mass [2×106 Da] FITC-dextran in PBS [50 mg/ml], which was allowed to circulate for 2 minutes before the animals were euthanatized and the eyes enucleated and the flat mounts were prepared. Subsequent to retinal extraction, all retinas were fixed in 4% paraformaldehye for 24 hrs at 4° C. A dissecting microscope was used to dissect the cornea with a circumferential limbal incision, followed by removal of the lens and vitreous. Microscissors were used to make four radial incisions of the retinal eyecup in order to prepare retinal flat mounts on glass slides. Flat mounts were immersed in Aquamount mounting medium [Polysciences, Warrington, Pa.], coverslips were carefully placed over the retina, and the edges of the coverslips were sealed.
# Images of the perfused retinas were captured with a fluorescence microscope [Zeiss Axiovert 135, Thornwood, N.Y.], and images were captured in a digital format in a 10× and 100× objectives using a digital camera [AxioCam, NY]. The extent of retinal NV was then quantified by Metamorph™ imaging software [Universal Imaging, Sunnyvale, Calif.]. Briefly, the entire retina was outlined to distinguish the total retinal area of each eye. Then, the images were thresholded to emphasize only the FITC-perfused vessels. This permitted the measurement of total BV area of each retina and the percentage of each retina that is engrossed with BVs. The entire mounted retinas were analyzed in a masked fashion [three observers] to minimize sampling bias. The total vascularized area was then normalized to the total retinal area and the percentage of the retina covered by vessels was calculated. The vascular area was quantified by setting a threshold level of fluorescence, above which only vessels were captured [density slicing]. The total surface area of the retina was outlined using the outermost vessel of the arcade near the ora serrata as the border. The central capillary dropout area was quantified from the digital images in masked fashion. […]
# [2] = test system: R28 cells; assay: Real time RT-PCR analysis, in vitro, R28; type: cell-based, rat
# Experimental: A transformed Müller cell line [rMC-1] were grown in cell cultures in DMEM supplemented with 15% FBS, as well as with a fungicide mixture and 0.5% gentamicin in a humidified atmosphere of 5% CO2/95% air. Medium was changed every 2-3 days, and cells were grown to confluence in a 150-mm dish. Cells were split into 60-mm dishes and were used in the experiments when confluent. […] cells are immortalized rat retinal neurosensory/neuoroglial progenitor cells, by transfection with Adenovirus 12S E1A into the neonatal retinal tissue. […] cells express genes characteristic of neurons, as well as functional neuronal properties. […] cells were cultured in DMEM/F12 medium in a 1:1 mixture, supplemented with 5% FBS, 1.5 mM L-glutamine, 7.5 mM sodium pyruvate, 0.1 mM nonessential amino acids, 1×MEM, 0.37% sodium bicarbonate and 10 μg/ml gentamicin. Cells were incubated at 37° C. in the presence of 5% CO2. Human retinal microvascular endothelial cells [[…]][40,000 cells/well] were seeded in a 96-well plate and allowed to adhere overnight and incubated at 37° C. in normoxia. Cells were then cultured in 150 μl of CS-C medium supplemented with 10% FBS and in the presence of 1-100 μM YC-1 or DMSO [0.2%]. Cells were placed in airtight chambers [BioSpherix, Redfield, N.Y.] and the O2 tension was maintained at 1.2% by using Pro-Ox Model 110 O2 regulator [BioSpherix, Redfield, N.Y.]. The chamber was purged with a gas mixture of 5.32% CO2, and 93.48% N2. […] We used the primers summarized in [FIG. 6C] for RT-PCR. Gene-specific molecular beacons and primers were designed to encompass the genes of interest, with beacon's annealing site to overlap with the exon-exon junctions for additional specificity [Beacon Designer 6.0, Premier Biosoft International, Palo Alto, Calif., USA]. Threshold cycle [Ct] values for the different samples were utilized for the calculation of gene expression fold change using the formula 2 to the minus power of delta delta ct. Fold changes in the HIF-1, VEGF, PDGF-B, GFAP and iNOS gene relative to the β-actin endogenous control gene were determined by the following equation: fold change=2-Δ[ΔC T], where change in threshold cycle [ΔCT]=CT [gene of interest]-CT [β-actin] and Δ [ΔCT]=ΔCT [treated]-ΔCT [untreated].
# [3] = test system: rMC-1 cells
# [4] = test system: ischemic retinas of the OIR mouse model; settings: refs [16, 18]; cited from earlier work
# [5] = R28, hypoxia 48 hours, YC-1 25-100 μM, vs DMSO-treated hypoxic cells
smiles,measurement,setting,value
"OCc1ccc(-c2nn(Cc3ccccc3)c3ccccc23)o1 [YC-1, 3-(5′-hydroxymethyl-2′-furyl)-1-benzylindazole]",retinal vasodilation (vessel diameters),"[1]; OIR mice, dual injection P12 and P15, P17",inhibited oxygen-injury-induced vasodilation
same,area of pre-retinal neovascular tufts,"[1]; OIR mice, dual injection, P17, vs DMSO-treated group",significantly decreased
same,tortuosity index of retinal vessels,"[1]; OIR mice, dual injection, P17, DMSO 1.059, normoxic 1.019",1.026±0.001
same,number of BV tufts/flat mount,"[1]; OIR mice, dual intravitreal injection P12 and P15, P17, n=15, DMSO 198",3.0±1.1
same,"vascularized regions, share of the total size of the retina","[1]; OIR mice, dual intravitreal injections, P17, DMSO 70%, normoxic ~99%",~97%
same,"capillary-free (avascularized) regions, share of the size of the entire retina","[1]; OIR mice, intravitreal 3 μl YC-1 100 μM at P12 and P15, P17, DMSO-treated 30%",2.2%±0.1
same,retinal vaso-obliteration,"[1]; OIR mice, vs obliterated areas of DMSO-treated retinas",significantly inhibited the retinal vaso-obliteration
same,toxic effects on the retinal vasculature,"[1]; mouse, in vivo",No obvious toxic effects
same,PDGF-B mRNA level,[2]; [5],significant dose-dependent attenuations
same,VEGF mRNA level,[2]; [5],significant dose-dependent attenuations
same,iNOS mRNA level,[2]; [5],significant dose-dependent attenuations
same,GFAP mRNA level,"[2]; R28, hypoxia, YC-1 25-100 μM, vs DMSO-treated hypoxic cells, normalized to β-actin",significant dose-dependent attenuations
same,HIF-1α message level,"[2]; R28, pre- vs post-YC-1 treatment",no differences
same,cell viability (DAPI exclusion),[3],comprised the majority of cells
same,"HIF-1 and other proangiogenic factors [VEGF, MMP-9, ET-1, and EPO]",[4],inhibits
